Tests used:
L3.6pl res = assay: MTT proliferation assay, L3.6pl res (gemcitabine-resistant); format: cell-based, human
Procedure: The cell lines used for the proliferation assays were cultured in different media. The cell lines Pan-1, Panc-2 and BxPC3, which have been derived from the human ductal pancreatic adenocarcinoma (PDAC), were cultured in Dulbecco's modified Eagle medium (DMEM) (Sigma), that was supplemented with 1% penicillin/streptomycin (Life technologies/GIBCO 15140-122) and 10% fetal bovine serum (Life technologies/GIBCO 100500-064). The cell line L3.6pl was cultured in RPMI 1640 medium (Life technologies/GIBCO 72400-21) that was supplemented with 1% penicillin/streptomycin and 10% fetal bovine serum. A sub-clone of the cell line L3.6pl, that was designated L3.6pl res, was resistant to gemcitabine and was also cultured in RPMI 1640 medium (Life technologies/GIBCO 72400-21) that was supplemented with 1% penicillin/streptomycin, 10% fetal bovine serum and 2 μM gemcitabine (GEMZAR, Lily). The human immortalized, non-malignant cell line of the ductal pancreatic epithelium (HPDE) was cultured in keratinocyte-SFM (Life technologies/GIBCO) that was supplemented with 10% fetal bovine serum, 1% penicillin/streptomycin and 1% epidermal growth factor (EGF).
The proliferation rates of the cell lines were determined after stimulation with (i) biperiden, (ii) mepazine, and (iii) stimulation with both active ingredients. For this purpose, cells were seeded in plates with 96 wells at 5000 cells per well and incubated overnight at 37° C. and 5% CO2. Next morning, the blanket values were measured at 490 nm in an ELISA reader (FLUOstar Omega, BMG LABTECH) after the addition of 100 μL medium and 20 μL MTT substrate (CellTiter 96 AQueous One Solution Cell Proliferation Assay, Promega). Biperiden was added in increasing concentrations (3.71 μg/ml, 11.1 μg/ml und 29.6 μg/ml) in the form of solutions of biperiden hydrochloride (B5311 SIGMA-Aldrich, USA) and DMSO. […] The ex-tinction was measured every 24 hours during a period of 72 hours.
The normal distribution of the results was analyzed by Kolgomorov-Smirnov test and Shapiro-Wilk test. Non-parametric variables were analyzed using the Mann-Whitney-U test. […]

MALT1 = target: T1, MALT1 (Homo sapiens, UniProt Q9UDY8); assay: MALT1 activity in treated cells (immunoprecipitation, AC-LRSR-AMC cleavage); format: cell-based
T1 construct: endogenous in cells; host or cells: Panc-1, Panc-2, HPDE, Jurkat (PMA-stimulated and non-stimulated)
T1 sequence (Q9UDY8 1-824): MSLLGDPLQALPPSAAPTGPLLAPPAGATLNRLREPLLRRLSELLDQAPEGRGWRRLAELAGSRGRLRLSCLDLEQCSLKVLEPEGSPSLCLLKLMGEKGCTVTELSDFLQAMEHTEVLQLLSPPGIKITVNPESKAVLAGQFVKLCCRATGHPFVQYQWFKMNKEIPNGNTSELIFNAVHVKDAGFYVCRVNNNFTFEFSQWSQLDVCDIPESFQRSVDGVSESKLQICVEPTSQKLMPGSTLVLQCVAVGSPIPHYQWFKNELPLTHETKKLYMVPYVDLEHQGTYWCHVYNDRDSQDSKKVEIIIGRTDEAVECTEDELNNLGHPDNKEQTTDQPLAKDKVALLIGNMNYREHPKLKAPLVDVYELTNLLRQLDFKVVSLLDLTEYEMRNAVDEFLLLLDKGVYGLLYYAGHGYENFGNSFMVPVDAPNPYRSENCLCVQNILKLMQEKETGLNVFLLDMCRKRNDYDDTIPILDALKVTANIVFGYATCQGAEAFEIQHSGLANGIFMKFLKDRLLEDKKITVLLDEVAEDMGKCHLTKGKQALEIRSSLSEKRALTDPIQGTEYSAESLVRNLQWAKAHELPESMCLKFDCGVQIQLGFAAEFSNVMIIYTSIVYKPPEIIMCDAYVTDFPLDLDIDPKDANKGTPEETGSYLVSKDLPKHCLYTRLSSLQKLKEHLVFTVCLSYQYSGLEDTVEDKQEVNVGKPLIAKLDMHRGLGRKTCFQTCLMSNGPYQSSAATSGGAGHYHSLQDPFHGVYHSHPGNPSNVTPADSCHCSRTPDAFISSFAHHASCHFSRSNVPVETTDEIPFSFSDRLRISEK
Procedure: The MALT1 activity was measured in the pancreatic cancer cells Panc-1, Panc-2 and in the reference line HPDE as well as in the PMA-stimulated and non-stimulated Jurkat cells. In order to examine whether mepazine, biperiden or a combination of both active ingredients influence the MALT1 activity and pancreatic cancer cells, an assay was performed as described in Nagel et al.. For this purpose, the pancreatic cancer cell lines and the reference cell lines were treated with biperiden (29.6 μg/ml), mepazine (25 μM), a combination of both active ingredients (15 μM mepazine+3.71 μg/ml biperiden) or only with DMSO. The cells were subsequently lysed and precipitated with mouse anti-MALT1 antibody (SC-76677, Santa Cruz, Calif., USA) as previously described by Gungor et al.. As described in the protocol, the fluorogenic substrate AC-LRSR-AMC, which was derived from the C-terminal BCL 10 cleavage site, was used as a substrate for MALT1. The cleavage activity of MALT1 was subsequently determined as relative fluorescence units by a microtiter plate reader (FLUOstar, Omega, BMG Labtech).
The results were determined after 24 hours of incubation with mepazine, biperiden, or a combination of both active ingredients. It was shown that pancreatic cancer cell lines as well as non-malignant, immortalized HPDE cell lines had constitutive MALT1 activity, although to a different extent. As a reference, a non-stimulated Jurkat cell line and a Jurkat cell line that was activated with PMA were examined.

Row | SMILES | reduction of proliferation rate (L3.6pl res; 29.6 μg/ml biperiden, p=0.022) | MALT1 activity (MALT1; HPDE, 29.7 μg/ml biperiden, 10, 30 and 60 minutes after incubation with the MALT1 substrate, significantly (p=0.002; p=0.005; p=0.012)) | MALT1 activity (MALT1; Panc-1, 29.7 μg/ml biperiden) | MALT1 activity (MALT1; Panc-2, 29.7 μM biperiden, immediately and 10 minutes after addition of the MALT1 substrate, statistically significant (p=0.011; p=0.031)) | reduction of proliferation rate (L3.6pl res; 15 μM mepazine, p=0.031) | proliferation (L3.6pl res; 25 μM mepazine, p=0.002) | MALT1 activity (MALT1; HPDE, 25 μM mepazine, 24 hours of incubation) | MALT1 activity (MALT1; Panc-1, 25 μM mepazine, immediately after addition of the MALT1 substrate and 10, 30, 60 and 90 minutes thereafter, statistically significant) | MALT1 activity (MALT1; Panc-2, 25 μM mepazine)
1 | OC(CCN1CCCCC1)(c1ccccc1)C1CC2C=CC1C2 (stereo not drawn) [biperiden] | 71.6% | reduced the MALT1 activity | visibly reduced the MALT1 activity; however, this effect was not statistically significant | the MALT1 activity was reduced | – | – | – | – | –
2 | CN1CCCC(CN2c3ccccc3Sc3ccccc32)C1 (stereo not drawn) [mepazine] | – | – | – | – | 69.4% | completely stopped | did not influence the MALT1 activity | the MALT1 activity was reduced | reduced the MALT1 activity, whereas this reduction however was not statistically significant

— patent publication US20180153870A1, “BIPERIDEN FOR TREATING CANCER” (Universitätsklinikum Hamburg-Eppendorf, priority 2015, published 2018)
